Test results published in patent US20220096526A1, “METHODS AND COMPOSITIONS FOR THE TREATMENT AND PREVENTION OF OCULAR DISEASES AND CONDITIONS” (Tufts Medical Center, Inc., priority 2019, published 2022).

How the values were obtained:
[1] = system: sorted corneal pDCs; experiment: Single cell PCR on sorted corneal pDCs stimulated in vitro; type: cell-based, mouse; conditions: 24 hours in vitro, 3 μg/ml
Protocol: (§1) Corneal epithelium was removed with fine forceps following 30 minutes incubation with PBS containing 20 mM EDTA (Sigma-Aldrich) at 37° C. Next, 4-6 corneal stromas were pooled and lysed using BeadBug Microtube Homogenizer (Benchmark Scientific, Inc., Edison, N.J.). Next, RNA was isolated from the corneal stroma using RNeasy Plus Universal Mini kit (QIAGEN, Germantown, Md.). For isolating RNA from freshly sorted pDCs, purified cDCs, cultured pDCs, and cultured TGCs, RNeasy Plus Micro Kit (QIAGEN) was used. RNA yield was measured by spectroscopy (NanoDrop ND-1000; NanoDrop Technologies, Inc., Wilmington, Del.). cDNA was synthetized using 300 ng of template RNA using QuantiTect Reverse Transcription kit (Qiagen). qRT-PCR was performed using iTaq Universal SYBR Green Supermix (Biorad, Hercules, Calif.) and Eppendorf Mastercycler RealPlex 2 (Eppendorf, Hauppauge, N.Y.) with the primers described below. Relative mRNA levels were measured with ΔΔCT method.
(§2) 8-10 corneas of naïve DPE-GFP×RAG1^−/− mice were excised and digested to yield a single cell suspension as described for flow cytometry experiments. GFP-tagged pDCs were sorted via Moflo Cell Sorter (Beckman Coulter) into a 96-well plate (100 cell/well) and cultured for 24 hours in RPMI (Gibco) supplemented with 10% 10% FBS (Gemini Bioproducts), 1% penicillin/streptomycin (Life Technologies), as well as 3 μg/ml Imiquimod, CpG-ODN, or control ODN (all InvivoGen). RNA isolation and cDNA synthesis were performed via REPLI-g Cell WGA & WTA kit (Qiagen). qRT-PCR was performed as described earlier. In another set of experiments, 4-6 corneas of DPE-GFP×RAG1^−/− mice undergoing inoculation of 10 μg Imiquimod, 10 μg CpG-ODN, or control ODN were harvested 24 hours following inoculation; next, corneas were digested and GFP-tagged pDCs were sorted (100 cell/condition) and underwent single cell PCR.

[2] = system: corneal pDCs; experiment: Ocular inoculation of TLR7 and 9 agonists, single cell PCR on sorted corneal pDCs; type: in vivo, mouse; conditions: 24 hours; for relative mRNA levels of NGF: 10 μg inoculated to cornea of DPE-GFP×RAG1−/− mice
Protocol: as §2
Following anesthetizing DPE-GFP×RAG1^−/− mice and application of topical proparacaine hydrochloride, central corneal epithelium was debrided using an Algerbrush II corneal rust ring remover with a 0.5-mm burr (Alger Equipment Co, Lago Vista, Tex.). 10 μg Imiquimod (TLR7 agonist; InvivoGen, San Diego, Calif.), 10 μg phosphorothioate CpG 1826 oligonucleotide (CpG-ODN; a synthetic TLR9 agonist; InvivoGen), or control oligonucleotide 1826 (Control ODN; InvivoGen) was topically administered on the eye. 24 hours later corneas were removed to sort corneal GFP-tagged pDCs and single cell PCR experiments.

[3] = system: splenic pDCs (CD45+PDCA-1+CD45R/B220+); experiment: Endostatin expression in pDCs of cultured splenic cells (flow cytometry); type: cell-based, mouse; conditions: splenic cells of C57BL/6 mice, 1 μg/ml, 24 hours
Protocol: Spleens of wildtype C57BL/6 mice were harvested and subjected to mechanical disruption. Samples were then filtered and underwent RBC lysis via incubation with ammonium chloride RBC lysis buffer (ACK; Biofluids, Rockville, Md.). Next, isolated splenic cells were cultured in RPMI supplemented with 10% heat-inactivated fetal bovine serum (FBS; Gemini Bioproducts, Woodland, Calif.), and 1% penicillin/streptomycin (Life Technologies, Carlsbad, Calif.). Cells were treated with 1 μg/ml Imiquimod (TLR7 agonist; InvivoGen, San Diego, Calif.), CpG-ODN (TLR9 agonist; InvivoGen), or PBS control for 24 hours. The experiment was done in triplicate.
After 24 hours of culture, isolated splenic cells were subjected to flow cytometry. In brief, cells were washed and then fixed and permeabilized using Foxp3/Transcription Factor Fixation/Permeabilization Reagent (eBioscience, San Diego, Calif.) according to the manufacturer's instructions. Cells were then washed twice with permeabilization buffer (eBioscience), blocked in 1% anti-CD16/CD32 FcR mAb at 4° C. in permeabilization buffer, and subsequently labeled with combinations of primary antibodies against CD45 (Biolegend, San Diego, Calif.), PDCA-1 (Biolegend), CD45R/B220 (Biolegend), Endostain (Abcam, Cambridge, Mass.) or their respective isotype controls for 30 minutes at 4° C. in the dark. After washing, cells were labeled with fluorochrome-conjugated anti-rabbit secondary antibody (for Endostatin) for 30 minutes at 4° C. All samples were washed and reconstituted in permeabilization before data acquisition with a BD LSR II flow cytometer (BD Biosciences). Data were analyzed with FlowJo V9.2 (FlowJo, LLC).

[4] = system: sorted splenic pDCs; experiment: NGF and CREB relative mRNA (qRT-PCR) in cultured sorted splenic pDCs; type: cell-based, mouse
Protocol: pDCs were isolated from DPE-GFP×RAG1^−/− and cDCs were purified from naïve WT C57BL/6 mice, respectively. DPE-GFP×RAG1^−/− mice underwent subcutaneous injection of 5×10^6 B16 murine Flt3L-secreting melanoma tumor cells. 10-14 days later, mice were euthanized; spleens were harvested, and mechanically disturbed using a 5 ml syringe plunger and were filtered through a […] cell strainer (BD Falcon). Next, after incubation with ice-cold ammonium chloride (ACK) lysis buffer (Biofluids, Rockville, Md.) for 1 minute to remove contaminating RBCs, cells were washed with PBS. GFP-tagged pDCs were sorted via Moflo Cell Sorter (Beckman Coulter, Brea, Calif.). For obtaining pDCs for co-culturing TGCs with different densities of pDCs, as well as for flow cytometry and presence of NGF mRNA on GFP-tagged splenic pDCs, and comparing the NGF mRNA content in pDCs and cDCs, naïve DPE-GFP×RAG1^−/− mice were used. cDCs were purified using CD11c MicroBeads (Miltenyi Biotec) according to the manufacturer's instruction, with a purity of more than 85%.
(§3) Isolated splenic pDCs were cultured in 48 well plates (200,000 cells/well) for 3 days with Ham's F-12 Nutrient Mix (Gibco, Carlsbad, Calif.) supplemented with 10% heat inactivated fetal bovine serum (FBS; Gemini Bioproducts, Woodland, Calif.), and 1% penicillin/streptomycin (Life Technologies, Carlsbad, Calif.). Cells were treated with 1, 5, and 10 μg/ml Imiquimod (InvivoGen, San Diego, Calif.) or PBS upon seeding. In another set of experiments, cells were pretreated with 10 μM SB 203580 (p38 MAP kinase inhibitor; Sigma-Aldrich) or PBS 1 hour prior to addition of 1 μg/ml Imiquimod (InvivoGen) or PBS. Cells were harvested for RNA or protein extraction 3 days after culture.
as §1

[5] = system: trigeminal ganglion cells (TGCs); experiment: Neurite outgrowth of TGCs in mono-culture or pDC co-culture with Imiquimod; type: cell-based, mouse; conditions: day 3
Protocol: Initially, 10-day old pups were euthanized, TGs were excised, chopped into small fragments, and digested in 2 mg/ml Collagenase D (Roche), 2 mg/ml DNAse I (Roche), and 5 mg/ml Dispase II (Sigma-Aldrich) in Hank's Balanced Salt Solution (Gibco) at 37° C. for 30 minutes. Next, after filtering, cells were layered over a 12.5% on 28% Percoll (GE Healthcare, Pittsburgh, Pa.) gradient in L15 media (Gibco) and centrifuged at 1300 g for 10 minutes. Following removing debris in the percoll interface, purified TGCs were recovered from the bottom of the gradient. Next, 10,000 cells/well were seeded in 24 well cell culture plates coated with growth factor reduced Matrigel (Corning Inc, Corning, N.Y.) in Ham's F-12 Nutrient Mix (Gibco) supplemented with 10% heat inactivated FBS (Gemini Bioproducts), 1% penicillin/streptomycin (Life Technologies) and 100 ng/ml NGF (Sigma-Aldrich). After one day of culture, media was changed to a similar media without NGF and sorted pDCs with different numbers were added to transwells. […] TGCs were used for RNA extraction and quantitative real-time PCR.
In another set of experiments, TGCs (10,000 cells/well) were cultured one day to adding 8,000 pDCs/well) to transwells. […] Neurite outgrowth was measured NeuronJ plugin (Meijering et al., Cytometry A 58(2):167-76, 2004) for ImageJ software (NIH, Bethesda, Md.).

[6] = system: sorted splenic pDCs; experiment: Phospho-CREB protein level in cultured splenic pDC lysates (Bio-Plex); type: cell-based, mouse; conditions: 3 days
Protocol: as §3
On day 3 following culture of sorted pDCs, cells were lysed via Bio-Plex Pro Cell Signaling Reagent Kit (Biorad) supplemented with phosphotase inhibitor cocktail (Roche) and phospho-CREB and β-actin levels were measured via phospho-CREB and β-actin Bio-Plex assays (Biorad) according to the manufacturer's instructions. Relative phospho-CREB to total β-actin protein levels were normalized to control group.

Compound	CREB transcription (relative mRNA) [1]	relative mRNA level of NGF [1]	relative mRNA levels of NGF [2]	median fluorescent intensity of endostatin staining in pDCs [3]	percentage of endostatin-secreting pDCs [3]	NGF relative mRNA level ([4]; splenic GFP-tagged pDCs, 3 days, 1, 5 and 10 μg/ml Imiquimod)	CREB relative mRNA level ([4]; splenic GFP-tagged pDCs, 3 days, different concentrations of Imiquimod)	relative NGF mRNA level ([4]; splenic pDCs, 1 μg/ml Imiquimod, 3 days)	CREB mRNA level ([2]; ocular inoculation of 10 μg, vs control inoculation)	neurite outgrowth in TGC mono-culture ([5]; TGCs alone, 1, 5 or 10 μg/ml Imiquimod)	neurite outgrowth in pDC and TGC co-culture ([5]; TGCs with 8,000 pDCs/well in transwells, 1, 5 or 10 μg/ml Imiquimod)	phosphorylation of CREB (phospho-CREB normalized to β-actin) ([6]; splenic pDCs, 1 μg/ml Imiquimod)	relative NGF mRNA level ([4]; splenic pDCs pre-treated 1 hour with 10 μM SB 203580, then 1 μg/ml Imiquimod, 3 days)	phosphorylation of CREB (phospho-CREB normalized to β-actin) ([6]; splenic pDCs pre-treated 1 hour with 10 μM SB 203580, then 1 μg/ml Imiquimod, in comparison to control)
phosphorothioate CpG 1826 oligonucleotide [CpG-ODN]	does not result in significant escalation in CREB transcription	did not result in increased NGF mRNA transcription	1.8±1.6 fold increase	increases	increases the percentage of endostatin-secreting	–	–	–	–	–	–	–	–	–
CC(C)Cn1cnc2c(N)nc3ccccc3c21 [Imiquimod]	increases transcription of CREB	2.6±0.7 fold increase	7.3±1.1 fold increase	increases	increases the percentage of endostatin-secreting	dose dependent increase	dose-dependent increase	2.0±0.6 fold increase	higher CREB mRNA levels	does not significantly enhance neurite outgrowth	enhances neurite outgrowth induced by pDCs	3.8±1.5 fold increase	–	–
C[S+]([O-])c1ccc(-c2nc(-c3ccncc3)c(-c3ccc(F)cc3)[nH]2)cc1 (stereo not shown) [SB 203580]	–	–	–	–	–	–	–	–	–	–	–	–	0.4±0.1 fold change	0.5±0.2 fold change
